# In ChEMBL document CHEMBL4732190, “Identification of Potent and Long-Acting Single-Chain Peptide Mimetics of Human Relaxin-2 for Cardiovascular Diseases” (J Med Chem, 2021):
# *1 amine or outer side, *2 acyl side, *3 side chain or, on linkers, in order; H or OH if unused. Where a SMILES comes first, the peptide text is derived from it. [ ]: non-standard residue; d: D form. The star is where a group is joined. PEG11 = NCCOCCOCCOCCOCCOCCOCCOCCOCCOCCOCCOCCC(=O)O; X3 = CCCCCCCCCCCCCCCCCCC(=O)[C@H](CCC(N)=O)N*; β2hAla(2S) = C[C@@H](CN[*:1])C(=O)[*:2]; hLys = NCCCCC[C@H](N)C(=O)O
# Columns and labels:
# [1] = Stability in human plasma assessed as parent compound remaining level at 5 uM remaining after 4 hrs; assay type: ADME, cell-free; settings: read-out: Stabilty
# Relaxin receptor 1 [2] = target: T1, Relaxin receptor 1 (Homo sapiens, UniProt Q9HBX9); experiment: Agonist activity at RXFP1 endogenously expressed in human OVCAR-5 cells assessed as increase in IBMX-induced cAMP accumulation pretreated with IBMX for 40 mins followed by compound addition and measured after 30 mins by HTRF assay; assay type: functional, cell-based
# T1 sequence (Q9HBX9 whole entry): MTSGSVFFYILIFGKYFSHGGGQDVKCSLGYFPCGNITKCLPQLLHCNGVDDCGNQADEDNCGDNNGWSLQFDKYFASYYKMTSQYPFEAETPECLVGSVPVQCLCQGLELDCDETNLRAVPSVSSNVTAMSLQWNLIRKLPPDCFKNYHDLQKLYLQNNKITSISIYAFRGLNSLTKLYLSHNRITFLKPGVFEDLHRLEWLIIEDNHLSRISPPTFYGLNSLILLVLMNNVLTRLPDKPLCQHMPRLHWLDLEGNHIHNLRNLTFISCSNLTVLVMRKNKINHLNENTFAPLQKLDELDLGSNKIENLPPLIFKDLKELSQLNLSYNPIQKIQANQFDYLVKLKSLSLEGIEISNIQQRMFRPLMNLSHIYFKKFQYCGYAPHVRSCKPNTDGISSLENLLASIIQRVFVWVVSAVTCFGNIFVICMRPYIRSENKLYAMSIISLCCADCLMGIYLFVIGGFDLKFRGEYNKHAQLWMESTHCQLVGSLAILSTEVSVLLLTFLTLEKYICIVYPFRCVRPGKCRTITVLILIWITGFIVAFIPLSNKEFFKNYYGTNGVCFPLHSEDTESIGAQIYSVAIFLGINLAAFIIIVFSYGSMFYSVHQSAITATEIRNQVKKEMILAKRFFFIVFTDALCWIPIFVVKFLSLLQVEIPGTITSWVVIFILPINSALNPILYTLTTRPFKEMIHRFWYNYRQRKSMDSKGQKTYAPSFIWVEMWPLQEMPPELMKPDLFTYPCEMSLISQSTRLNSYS
# [3] = target: T2, Relaxin receptor 1 (Homo sapiens) (UniProt Q9HBX9); experiment: Agonist activity at RXFP1 endogenously expressed in human OVCAR-5 cells assessed as increase in IBMX-induced cAMP accumulation pretreated with IBMX for 40 mins followed by compound addition and measured after 30 mins by HTRF assay relative to relaxin; assay type: functional, cell-based; settings: filed as agonist
# T2 sequence (whole entry): T1 sequence (Q9HBX9 whole entry)
# [4] = Aqueous solubility of compound in acetate buffer at pH 4.5 measured after 24 hrs by UPLC analysis; assay type: physicochemical
# [5] = Aqueous solubility of compound in phosphate buffer at pH 7.4 measured after 24 hrs by UPLC analysis; assay type: physicochemical
# [6] = Stability in rat plasma assessed as parent compound remaining level at 5 uM remaining after 4 hrs; assay type: ADME, cell-free; settings: read-out: Stabilty
# [7] = Half life in Sprague-Dawley rat at 1 mg/kg, iv measured upto 72 hrs by LC-HRMS analysis; assay type: ADME, organism-based; settings: in vivo
# Relaxin receptor 1 [8] = target: T1, Relaxin receptor 1; experiment: Agonist activity at RXFP1 endogenously expressed in human OVCAR-5 cells assessed as increase in IBMX-induced cAMP accumulation pretreated with IBMX for 40 mins followed by compound addition and measured after 30 mins in presence of 2 % HSA by HTRF assay; assay type: functional, cell-based
# [9] = target: T2, Relaxin receptor 1 (Homo sapiens); experiment: Agonist activity at RXFP1 endogenously expressed in human OVCAR-5 cells assessed as increase in IBMX-induced cAMP accumulation pretreated with IBMX for 40 mins followed by compound addition and measured after 30 mins in presence of 2 % HSA by HTRF assay relative to control; assay type: functional, cell-based; settings: filed as agonist
# [10] = target: T2, Relaxin receptor 1 (Homo sapiens); experiment: Selectivity ratio of EC50 for agonist activity at RXFP1 endogenously expressed in human OVCAR-5 cells in presence of 2 % HSA to EC50 for agonist activity at RXFP1 endogenously expressed in human OVCAR-5 cells in absence of HSA; assay type: cell-based
"remaining at 4 h, 5 µM [1] [%]",EC50 (Relaxin receptor 1 [2]) [nM],Emax [3] [%],solubility at 24 h [4] [µg/mL],solubility at 24 h [5] [µg/mL],"remaining at 4 h, 5 µM [6] [%]",half-life [7] [h],EC50 (Relaxin receptor 1 [8]) [nM],Emax [9] [%],Ratio EC50 [10],SMILES
58,17,99,5100,5300,37,–,–,–,–,CC[C@H](C)[C@H](NC(=O)[C@H](CCC(N)=O)NC(=O)[C@H](C)NC(=O)[C@H](CCCNC(=N)N)NC(=O)[C@@H](NC(=O)[C@H](CCCCN)NC(=O)[C@H](CCC(=O)O)NC(=O)[C@H](CCCNC(=N)N)NC(=O)CNC(=O)[C@H](CCC(=O)O)NC(=O)[C@H](CC(C)C)NC(=O)[C@H](CCCCN)NC(=O)[C@@H](NC(=O)[C@@H](NC(C)=O)C(C)C)[C@@H](C)CC)C(C)C)C(=O)NC[C@H](C)C(=O)NC[C@H](C)C(=O)N[C@@H](CCC(=O)O)C(=O)NCC(=O)N[C@@H](CCSC)C(=O)N[C@@H](CO)C(=O)N[C@@H](CCCCN)C(=O)N[C@@H](Cc1c[nH]c2ccccc12)C(=O)N[C@@H](CO)C(=O)N[C@@H](CCCCN)C(=O)N[C@@H](CCCNC(=N)N)C(=O)N[C@@H](CCCCN)C(=O)N[C@@H](CCCCN)C(N)=O (HELM PEPTIDE1{[ac].V.I.K.L.E.G.R.E.K.V.R.A.Q.I.[C[C@@H](CN[*:1])C(=O)[*:2]].[C[C@@H](CN[*:1])C(=O)[*:2]].E.G.M.S.K.W.S.K.R.K.K.[am]}$$$$V2.0)
80,17.8,99,2800,2400,60,–,–,–,–,CC[C@H](C)[C@H](NC(=O)[C@H](CCC(N)=O)NC(=O)[C@H](C)NC(=O)[C@H](CCCNC(=N)N)NC(=O)[C@@H](NC(=O)[C@H](CCCCN)NC(=O)[C@H](CCC(=O)O)NC(=O)[C@H](CCCNC(=N)N)NC(=O)CNC(=O)[C@H](CCC(=O)O)NC(=O)[C@H](CC(C)C)NC(=O)[C@H](CCCCN)NC(=O)[C@@H](NC(=O)[C@@H](NC(=O)[C@H](CCC(=O)O)NC(=O)[C@H](CCC(=O)O)NC(C)=O)C(C)C)[C@@H](C)CC)C(C)C)C(=O)NC[C@H](C)C(=O)NC[C@H](C)C(=O)N[C@@H](CCC(=O)O)C(=O)NCC(=O)N[C@@H](CCSC)C(=O)N[C@@H](CO)C(=O)N[C@H](C(=O)N[C@@H](Cc1c[nH]c2ccccc12)C(=O)N[C@@H](CO)C(=O)NC[C@H](C)C(=O)N[C@@H](CCCNC(=N)N)C(=O)N[C@@H](CCCCN)C(=O)N[C@@H](CCCCN)C(N)=O)[C@@H](C)O (Ac-EEVIKLEGREKVRAQI[β2hAla(2S)][β2hAla(2S)]EGMSTWS[β2hAla(2S)]RKK-NH2)
93,0.6,95,–,5400,80,43,9,84,15,CCCCCCCCCCCCCCCCCCC(=O)[C@H](CCC(N)=O)NC(=O)[C@H](CCC(=O)O)NC(=O)[C@H](CCC(=O)O)NC(=O)[C@H](CCCCN)NC(=O)CCOCCOCCOCCOCCOCCOCCOCCOCCOCCOCCOCCNC(=O)[C@H](CCCCCNC(C)=O)NC(=O)[C@H](CCCCN)NC(=O)[C@@H](C)CNC(=O)[C@@H](C)CNC(=O)[C@@H](NC(=O)[C@H](CCCCCNC(C)=O)NC(=O)[C@H](CCCCN)NC(=O)[C@H](C)NC(=O)[C@H](CCCNC(=N)N)NC(=O)[C@@H](NC(=O)[C@H](CCCCN)NC(=O)[C@H](CCC(=O)O)NC(=O)[C@H](CCCNC(=N)N)NC(=O)[C@H](CCC(=O)O)NC(=O)CNC(=O)[C@H](CCC(=O)O)NC(=O)[C@H](CC(C)C)NC(C)=O)C(C)C)[C@@H](C)CC (Ac-LEGEREKVRAK[hLys](Ac)I[β2hAla(2S)][β2hAla(2S)]K[hLys](Ac)[PEG11]KEE-X3)
